Laboratory results: PubChem BioAssay AID2060609 (Molecular Pharmacology Branch, DTP, NCI, 2025)

Test system: 855422-203-R-J1-PDC complex spheroids, viability
Test: Anticancer human tumor 855422-203-R-J1-PDC patient-derived bladder carcinoma cell line growth inhibition [CLK]
Details: for IC50: curve of first compound; for viability, T/C: stronger effect = lower value
From the text: A high-throughput screen of multi-cell type tumor spheroids was designed to identify active combinations of […] and targeted small molecules. Complex spheroids include a stromal component modeled by human endothelial cells (HUVEC) and fibroblasts modeled by human mesenchymal stem cells (MSCs). The concentration ranges selected for each drug and investigational agent were based upon clinically achievable concentrations if the clinical Cmax of the agent was known.
Compounds. The drugs and investigational agents: cirtuvivint (SM08502; NSC835563), CC-671 (NSC850746), vemurafenib (NSC761431), tapotoclax (NSC804041), sotorasib (NSC818433), adagrasib (NSC831453), MRTX-1133 (NSC836407), BAY2416964 (NSC825713), copanlisib (NSC816437), inavolisib (NSC800729), abemaciclib (NSC768073), osimertinib (NSC779217), entinostat (NSC756642), eltanexor (KPT-8602, NSC794443), venetoclax (NSC766270), ceralasertib (NSC777638), bortezomib (NSC756655), olaparib (NSC753686), talazoparib (NSC767125), alisertib (NSC759677), peposertib (NSC802822), gemcitabine (NSC613327), 5-fluorouracil (NSC19893), SN-38 (NSC673596), oxaliplatin (NSC266046), paclitaxel (NSC125973), and doxorubicin (NSC123127), were obtained from the National Cancer Institute (NCI) Developmental Therapeutics Program Chemical Repository. The FDA-approved anticancer drug set is available from the Developmental Therapeutics Program at https://dtp.cancer.gov/organization/dscb/obtaining/available plates.htm. […] The stock solutions were prepared in dimethyl sulfoxide (DMSO, Sigma-Aldrich, St. Louis, MO, cat. D2650), except for the platinum complexes which were prepared in saline (Quality Biological, Gaithersburg, MD, cat. 114-055-101), at 800-fold the tested concentration and stored at -70 degrees C prior to their use. All drugs and investigational agents were tested over a range starting from a high concentration at or near the clinical Cmax and decreasing in half-log increments. If the clinical Cmax for an agent had not been determined, the highest concentration tested was 10 microM.
Cell Culture. All cells were maintained in an incubator at 37 degrees C and 5% CO2 with 95% humidity. The PDC lines were cultured according to standard operating procedures established by the NCI PDMR. Briefly, all PDCs were thawed and cultured in Matrigel-coated flasks prepared with a working solution of 1X Ham's F-12 nutrient mix, without supplementation (Invitrogen, Waltham, MA, cat. 11765054), 100 U/mL penicillin-streptomycin (Invitrogen, cat. 15140122), and 2.5% Matrigel (Corning Inc., Corning, NY, cat. 354248) for the first three passages. The 947758-054-R-J2-PDC line was cultured in 6B/Colon 1A media, which includes advanced DMEM/F-12 (Thermo Fisher Scientific, cat. 12634028), 10 mM HEPES (Thermo Fisher Scientific, cat. 15630080), 1X GlutaMAX supplement (Thermo Fisher Scientific, cat. 35050061), 0.1 mg/mL primocin (InvivoGen, cat. ant-pm-2), 10% defined fetal bovine serum, heat inactivated (HyClone Laboratories Inc., cat. SH30070.03HI), 1.25 mM N-Acetyl-L-cysteine (Sigma-Aldrich, cat. A9165), 10 mM nicotinamide (Sigma-Aldrich, cat. N0636), 1X B-27 supplement (Thermo Fisher Scientific, cat. 17504044), 1X N-2 supplement (Thermo Fisher Scientific, cat. 17502048), and 10 microM Y-27632 dihydrochloride (Tocris Bioscience, cat. 1254). The 876862-298-R-J1-PDC was cultured in 6E media, which includes all 6B/Colon 1A media components plus 50% L-WRN conditioned media (ATCC, cat. CRL-3276), 50 ng/mL recombinant human EGF recombinant protein (hEGF; Thermo Fisher Scientific, cat. PHG0311), 10 ng/mL recombinant human fibroblast growth factor 10 (hGFG-10; PeproTech, cat. 100-26), 1 ng/mL recombinant human fibroblast growth factor 2 (hFGF-2; PeproTech, cat. 100-18B), and 1 µM prostaglandin E2 (PGE2; Tocris, cat. 2296). The 227483-062-R1-J1-PDC line was cultured in Panc media, containing all 6E components except hFGF-2, with the addition of 500 nM SB-431542 (Selleckchem, cat. S1067) and 10 nM gastrin (Tocris, cat. 3006). […]

[1] = second compound 0.0316 µM, first compound 0.0316 µM
[2] = second compound 0.0316 µM, first compound 0.1 µM
[3] = second compound 0.1 µM, first compound 0.0316 µM
[4] = second compound 0.1 µM, first compound 0.1 µM
[5] = second compound 0.316 µM, first compound 0.0316 µM
[6] = second compound 0.316 µM, first compound 0.1 µM
[7] = second compound 1 µM, first compound 0.0316 µM
[8] = second compound 1 µM, first compound 0.1 µM
[9] = second compound 3.16 µM, first compound 0.0316 µM
[10] = second compound 3.16 µM, first compound 0.1 µM
[11] = second compound 10 µM, first compound 0.0316 µM
[12] = second compound 10 µM, first compound 0.1 µM
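Note: spheroids exposed to drugs for seven days before readout.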
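Throughout, for viability, T/C: 100% = DMSO vehicle control wells.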

Cn1ncnc1[C@H]1c2n[nH]c(=O)c3cc(F)cc(c23)N[C@@H]1c1ccc(F)cc1 + CN1CCN(c2cc(C(=O)Nc3cc4cc(-c5cnn(C)c5)ccc4cn3)ccn2)CC1
IC50 (second compound 0.0316 µM): > 100 nM | IC50 (second compound 0.1 µM): > 100 nM | IC50 (second compound 0.316 µM): < 0.316 nM | IC50 (second compound 1 µM): < 0.316 nM | IC50 (second compound 3.16 µM): < 0.316 nM | IC50 (second compound 10 µM): < 0.316 nM | viability, T/C (second compound 0.0316 µM, first compound 0.000316 µM): 97.4% | viability, T/C (second compound 0.0316 µM, first compound 0.001 µM): 101% | viability, T/C (second compound 0.0316 µM, first compound 0.00316 µM): 110% | viability, T/C (second compound 0.0316 µM, first compound 0.01 µM): 104% | viability, T/C [1]: 113% | viability, T/C [2]: 104% | viability, T/C (second compound 0.1 µM, first compound 0.000316 µM): 79.5% | viability, T/C (second compound 0.1 µM, first compound 0.001 µM): 92.6% | viability, T/C (second compound 0.1 µM, first compound 0.00316 µM): 103% | viability, T/C (second compound 0.1 µM, first compound 0.01 µM): 87.4% | viability, T/C [3]: 95.9% | viability, T/C [4]: 83.8% | viability, T/C (second compound 0.316 µM, first compound 0.000316 µM): 5.88% | viability, T/C (second compound 0.316 µM, first compound 0.001 µM): 9.73% | viability, T/C (second compound 0.316 µM, first compound 0.00316 µM): 10.4% | viability, T/C (second compound 0.316 µM, first compound 0.01 µM): 9.1% | viability, T/C [5]: 9.56% | viability, T/C [6]: 8.15% | viability, T/C (second compound 1 µM, first compound 0.000316 µM): 0.17% | viability, T/C (second compound 1 µM, first compound 0.001 µM): 0.23% | viability, T/C (second compound 1 µM, first compound 0.00316 µM): 0.15% | viability, T/C (second compound 1 µM, first compound 0.01 µM): 0.12% | viability, T/C [7]: 4.07% | viability, T/C [8]: 0.15% | viability, T/C (second compound 3.16 µM, first compound 0.000316 µM): 0.48% | viability, T/C (second compound 3.16 µM, first compound 0.001 µM): 0.5% | viability, T/C (second compound 3.16 µM, first compound 0.00316 µM): 0.41% | viability, T/C (second compound 3.16 µM, first compound 0.01 µM): 0.33% | viability, T/C [9]: 0.23% | viability, T/C [10]: 0.84% | viability, T/C (second compound 10 µM, first compound 0.000316 µM): 0.23% | viability, T/C (second compound 10 µM, first compound 0.001 µM): 1.99% | viability, T/C (second compound 10 µM, first compound 0.00316 µM): 0.17% | viability, T/C (second compound 10 µM, first compound 0.01 µM): 0.22% | viability, T/C [11]: 0.17% | viability, T/C [12]: 0.18%

COc1cccc2c1C(=O)c1c(O)c3c(c(O)c1C2=O)CC(O)(C(=O)CO)CC3OC1CC(N)C(O)C(C)O1 (centres undefined) + CNC(=O)c1ccc(Nc2nc(OC3CCCC3)c3c(-c4ccc5nc(C)oc5c4)c[nH]c3n2)c(OC)c1
IC50 (second compound 0.0316 µM): < 31.6 nM | IC50 (second compound 0.1 µM): < 31.6 nM | IC50 (second compound 0.316 µM): < 31.6 nM | IC50 (second compound 1 µM): < 31.6 nM | IC50 (second compound 3.16 µM): < 31.6 nM | IC50 (second compound 10 µM): < 31.6 nM | viability, T/C [1]: 10.3% | viability, T/C [2]: 2.45% | viability, T/C (second compound 0.0316 µM, first compound 0.316 µM): 0.72% | viability, T/C (second compound 0.0316 µM, first compound 1 µM): 0.22% | viability, T/C (second compound 0.0316 µM, first compound 3.16 µM): 0.45% | viability, T/C (second compound 0.0316 µM, first compound 10 µM): 0.6% | viability, T/C [3]: 11% | viability, T/C [4]: 1.62% | viability, T/C (second compound 0.1 µM, first compound 0.316 µM): 1.02% | viability, T/C (second compound 0.1 µM, first compound 1 µM): 0.3% | viability, T/C (second compound 0.1 µM, first compound 3.16 µM): 0.4% | viability, T/C (second compound 0.1 µM, first compound 10 µM): 0.51% | viability, T/C [5]: 9.64% | viability, T/C [6]: 1.3% | viability, T/C (second compound 0.316 µM, first compound 0.316 µM): 0.46% | viability, T/C (second compound 0.316 µM, first compound 1 µM): 0.22% | viability, T/C (second compound 0.316 µM, first compound 3.16 µM): 0.45% | viability, T/C (second compound 0.316 µM, first compound 10 µM): 0.55% | viability, T/C [7]: 7.4% | viability, T/C [8]: 1.13% | viability, T/C (second compound 1 µM, first compound 0.316 µM): 0.24% | viability, T/C (second compound 1 µM, first compound 1 µM): 0.56% | viability, T/C (second compound 1 µM, first compound 3.16 µM): 0.58% | viability, T/C (second compound 1 µM, first compound 10 µM): 0.82% | viability, T/C [9]: 9.03% | viability, T/C [10]: 0.94% | viability, T/C (second compound 3.16 µM, first compound 0.316 µM): 0.2% | viability, T/C (second compound 3.16 µM, first compound 1 µM): 0.62% | viability, T/C (second compound 3.16 µM, first compound 3.16 µM): 0.98% | viability, T/C (second compound 3.16 µM, first compound 10 µM): 0.75% | viability, T/C [11]: 6.1% | viability, T/C [12]: 0.68% | viability, T/C (second compound 10 µM, first compound 0.316 µM): 0.35% | viability, T/C (second compound 10 µM, first compound 1 µM): 0.72% | viability, T/C (second compound 10 µM, first compound 3.16 µM): 0.63% | viability, T/C (second compound 10 µM, first compound 10 µM): 1.3%
